Data set [1] deals with T1, Amine oxidase [flavin-containing] B (Homo sapiens, UniProt P27338).
T1 sequence (P27338 whole entry): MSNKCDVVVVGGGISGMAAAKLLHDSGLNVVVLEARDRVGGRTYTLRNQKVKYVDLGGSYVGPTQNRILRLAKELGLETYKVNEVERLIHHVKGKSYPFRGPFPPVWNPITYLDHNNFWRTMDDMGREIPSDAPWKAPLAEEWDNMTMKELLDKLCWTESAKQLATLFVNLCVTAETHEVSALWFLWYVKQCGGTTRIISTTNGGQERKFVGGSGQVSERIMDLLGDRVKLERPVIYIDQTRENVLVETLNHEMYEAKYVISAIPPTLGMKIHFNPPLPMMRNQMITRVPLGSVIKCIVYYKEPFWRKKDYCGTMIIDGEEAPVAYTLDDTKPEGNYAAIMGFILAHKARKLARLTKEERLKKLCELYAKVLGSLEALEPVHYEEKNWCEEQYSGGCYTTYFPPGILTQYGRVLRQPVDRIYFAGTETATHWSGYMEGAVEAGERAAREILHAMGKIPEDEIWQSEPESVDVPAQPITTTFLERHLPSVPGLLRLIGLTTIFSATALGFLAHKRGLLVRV
Description: Inhibition of human recombinant MAO-B expressed in insect cell microsomes using kynuramine as substrate assessed as formation of 4-hydroxyquinoline by fluorometric method. Further details: species or system Microsome; call rule not given here.

The species entered for data set [2] is Homo sapiens. Description: Selectivity index, ratio of IC50 for human recombinant MAO-A to IC50 for human recombinant MAO-B.
Data set [3] deals with T2, Amine oxidase [flavin-containing] A (Homo sapiens, UniProt P21397).
T2 sequence (P21397 whole entry): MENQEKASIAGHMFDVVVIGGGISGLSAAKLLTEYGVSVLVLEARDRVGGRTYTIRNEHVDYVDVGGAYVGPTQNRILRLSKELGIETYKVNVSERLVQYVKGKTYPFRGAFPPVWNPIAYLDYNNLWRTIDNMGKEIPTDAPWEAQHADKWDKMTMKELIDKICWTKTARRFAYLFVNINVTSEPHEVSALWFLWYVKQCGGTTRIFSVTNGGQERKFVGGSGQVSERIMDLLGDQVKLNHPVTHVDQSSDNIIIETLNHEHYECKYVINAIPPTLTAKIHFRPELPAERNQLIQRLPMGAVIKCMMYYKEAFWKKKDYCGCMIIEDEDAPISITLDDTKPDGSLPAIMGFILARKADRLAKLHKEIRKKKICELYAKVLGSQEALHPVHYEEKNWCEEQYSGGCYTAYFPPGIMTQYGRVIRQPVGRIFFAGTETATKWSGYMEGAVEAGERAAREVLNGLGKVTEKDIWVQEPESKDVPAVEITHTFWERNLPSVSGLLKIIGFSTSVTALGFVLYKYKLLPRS
Description: Inhibition of human recombinant MAO-A expressed in insect cell microsomes using kynuramine as substrate assessed as formation of 4-hydroxyquinoline by fluorometric method. Further details: species or system Microsome.

For data set [4], the target named is T2, Amine oxidase [flavin-containing] A. Description: Inhibition of human recombinant MAO-A expressed in insect cell microsomes using kynuramine as substrate assessed as formation of 4-hydroxyquinoline at 100 uM by fluorometric method. Further details: species or system Microsome.
Data set [5] deals with T3, Amine oxidase [flavin-containing] A (Rattus norvegicus, UniProt P21396).
T3 sequence (P21396 whole entry): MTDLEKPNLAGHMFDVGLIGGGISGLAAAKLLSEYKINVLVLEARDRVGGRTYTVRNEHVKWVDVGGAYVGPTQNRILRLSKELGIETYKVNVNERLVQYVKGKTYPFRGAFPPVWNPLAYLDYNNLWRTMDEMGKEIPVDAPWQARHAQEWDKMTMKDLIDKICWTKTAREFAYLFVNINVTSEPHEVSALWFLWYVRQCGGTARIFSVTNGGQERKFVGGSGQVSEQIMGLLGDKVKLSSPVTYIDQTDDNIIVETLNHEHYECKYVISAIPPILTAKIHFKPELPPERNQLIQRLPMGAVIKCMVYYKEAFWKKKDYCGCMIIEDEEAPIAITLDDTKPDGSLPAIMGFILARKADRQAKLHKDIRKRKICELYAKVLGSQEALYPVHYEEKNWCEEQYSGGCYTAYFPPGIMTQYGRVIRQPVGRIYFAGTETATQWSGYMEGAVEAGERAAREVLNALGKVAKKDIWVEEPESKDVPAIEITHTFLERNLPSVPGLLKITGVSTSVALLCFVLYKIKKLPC
Description: Displacement of [14C]-5HT from rat MAO-A after 20 mins by liquid scintillation counting analysis. A general note: Displacement assays read how much labelled ligand stays bound in the presence of the test substance.

The target in data set [6] is T4, Amine oxidase [flavin-containing] B (Rattus norvegicus, UniProt P19643).
T4 sequence (P19643 whole entry): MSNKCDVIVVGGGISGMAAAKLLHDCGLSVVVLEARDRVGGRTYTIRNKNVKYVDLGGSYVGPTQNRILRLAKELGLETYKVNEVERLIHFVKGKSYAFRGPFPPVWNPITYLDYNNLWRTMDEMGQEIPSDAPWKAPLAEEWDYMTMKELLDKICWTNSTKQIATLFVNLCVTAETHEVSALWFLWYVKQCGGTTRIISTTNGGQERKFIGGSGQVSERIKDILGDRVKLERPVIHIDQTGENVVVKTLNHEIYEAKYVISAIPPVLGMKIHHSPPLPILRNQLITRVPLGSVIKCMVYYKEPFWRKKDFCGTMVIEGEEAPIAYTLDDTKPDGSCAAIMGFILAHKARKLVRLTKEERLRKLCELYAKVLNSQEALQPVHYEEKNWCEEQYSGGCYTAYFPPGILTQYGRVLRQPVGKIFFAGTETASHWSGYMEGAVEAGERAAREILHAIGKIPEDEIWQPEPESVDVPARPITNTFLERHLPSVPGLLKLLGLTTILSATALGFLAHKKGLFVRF
Description: Displacement of [14C]-beta-PEA from rat MAO-B after 20 mins by liquid scintillation counting analysis.

As usually defined, the IC50 is the point on the concentration scale where inhibition reaches its midpoint. For `Cc1ccc(C(=O)/C=C/c2ccc(Br)cc2)o1`, the concentration for half-maximal inhibition (IC50) in data set [1] was 0.707 µM; in data set [3], 85.7 µM. For the same molecule, the Ratio IC50 in data set [2] came out at 121.

Take `Cc1ccc(C(=O)/C=C/c2ccc(F)cc2)o1`: the half-maximal inhibitory concentration (IC50) in data set [1] was determined as 0.924 µM; in data set [3], 18.6 µM. Also, in data set [2], the Ratio IC50 was 20.

Regarding `COc1cccc(/C=C/C(=O)c2ccc(C)o2)c1`, the “inhibition (INH)” value in data set [4] is reported as “Not Active”.

Take `O=C(/C=C/c1ccc(O)cc1)c1ccc(O)cc1O` [ISOLIQUIRITIGENIN]: the IC50 in data set [5] came out at 13.9 µM; in data set [6], 47.2 µM.

Values taken from ChEMBL document CHEMBL2417439, “Selected furanochalcones as inhibitors of monoamine oxidase” (Bioorg Med Chem Lett, 2013).
